Experimental data published in ChEMBL document CHEMBL3739339, “Discovery of a series of 2-(pyridinyl)pyrimidines as potent antagonists of GPR40” (Medchemcomm, 2015).
Values after ≈ are worked out from the molar mass of the structure shown. Active and inactive are the calls of the source. The rule behind the calls is not given here.

Assays:
[1] = Lipophilicity, log D of the compound at pH 7.4; type: physicochemical; settings: buffer
[2] = molecular target: Free fatty acid receptor 1 (Homo sapiens, UniProt O14842); experiment: Antagonist activity against human GPR40 expressed in HEK293s FLPIN cells assessed as elaidic acid stimulated IP1 release after 2 hrs by TR-FRET analysis; type: functional, cell-based
Hepatocyte = experiment: Intrinsic clearance in rat hepatocytes measured per 10^6 cells; type: ADME, cell-based
[3] = Clearance in rat; type: ADME, organism-based; settings: in vivo
[4] = Fraction unbound in human plasma; type: ADME, cell-free
Liver microsome = experiment: Intrinsic clearance in human liver microsomes […]; type: ADME
[5] = Oral bioavailability in rat; type: ADME, organism-based; settings: in vivo
[6] = Solubility of compound; type: physicochemical
[7] = Volume of distribution at steady state in rat; type: ADME, organism-based; settings: in vivo, read-out: Vdss
[8] = molecular target: Free fatty acid receptor 1 (Rattus norvegicus, UniProt Q8K3T4); experiment: Antagonist activity against rat GPR40
[9] = Fraction unbound in rat plasma; type: ADME, cell-free
[10] = Oral absorption in rat; type: ADME, organism-based; settings: in vivo, read-out: Fabs
Rattus norvegicus [11] = species on record: Rattus norvegicus; experiment: Unbound clearance in rat; type: ADME, organism-based; settings: in vivo
Rattus norvegicus [12] = experiment: Effect on plasma NEFA level in male Zucker rat at 80 mg/kg measured 4 hrs by ELISA assay relative to vehicle control; type: ADME, organism-based; settings: in vivo
Rattus norvegicus [13] = experiment: Inhibition of NEFA-driven plasma insulin level in male Zucker rat pretreated with beta3-agonist for 30 mins at 80 mg/kg measured 4 hrs post dosing by ELISA; type: functional
Rattus norvegicus [14] = experiment: Effect on plasma insulin level in male Zucker rat at 80 mg/kg measured after 4 hrs by ELISA relative to vehicle control; type: ADME, organism-based; settings: in vivo
[15] = molecular target: Free fatty acid receptor 1 (Mus musculus) (UniProt Q76JU9); experiment: Antagonist activity against mouse GPR40
[16] = molecular target: T1, Free fatty acid receptor 2 (Homo sapiens) (UniProt O15552); experiment: Antagonist activity at GPR43 (unkown origin)
T1 sequence (whole entry): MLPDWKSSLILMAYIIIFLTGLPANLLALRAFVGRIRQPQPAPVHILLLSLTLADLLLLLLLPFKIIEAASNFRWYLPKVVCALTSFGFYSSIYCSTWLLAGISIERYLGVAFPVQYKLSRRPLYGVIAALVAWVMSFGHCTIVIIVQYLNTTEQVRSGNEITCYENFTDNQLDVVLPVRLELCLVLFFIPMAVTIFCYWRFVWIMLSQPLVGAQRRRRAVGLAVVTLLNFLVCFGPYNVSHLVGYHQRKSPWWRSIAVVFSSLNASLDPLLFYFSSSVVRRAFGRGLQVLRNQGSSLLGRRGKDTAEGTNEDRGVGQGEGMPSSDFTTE

Free fatty acid receptor 1 (Homo sapiens, UniProt O14842), sequence (O14842 whole entry): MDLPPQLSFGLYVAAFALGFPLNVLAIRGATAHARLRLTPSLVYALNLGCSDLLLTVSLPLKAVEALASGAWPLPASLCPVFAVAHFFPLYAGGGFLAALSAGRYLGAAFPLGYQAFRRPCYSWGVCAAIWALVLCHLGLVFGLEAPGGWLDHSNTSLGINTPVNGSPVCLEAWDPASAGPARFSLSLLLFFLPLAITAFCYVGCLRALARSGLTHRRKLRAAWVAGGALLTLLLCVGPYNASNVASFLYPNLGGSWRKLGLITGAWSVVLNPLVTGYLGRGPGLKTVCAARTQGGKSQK
Free fatty acid receptor 1 (Rattus norvegicus, UniProt Q8K3T4), sequence (Q8K3T4 whole entry): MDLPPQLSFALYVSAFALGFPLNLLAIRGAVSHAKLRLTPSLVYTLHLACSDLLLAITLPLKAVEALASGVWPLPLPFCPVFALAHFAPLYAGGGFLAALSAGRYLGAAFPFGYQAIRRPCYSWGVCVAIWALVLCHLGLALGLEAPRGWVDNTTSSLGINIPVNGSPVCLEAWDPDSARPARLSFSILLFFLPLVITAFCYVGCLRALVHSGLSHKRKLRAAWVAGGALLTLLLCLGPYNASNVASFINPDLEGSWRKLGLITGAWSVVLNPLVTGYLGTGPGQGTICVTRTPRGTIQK
Free fatty acid receptor 1 (Mus musculus), sequence (Q76JU9 whole entry): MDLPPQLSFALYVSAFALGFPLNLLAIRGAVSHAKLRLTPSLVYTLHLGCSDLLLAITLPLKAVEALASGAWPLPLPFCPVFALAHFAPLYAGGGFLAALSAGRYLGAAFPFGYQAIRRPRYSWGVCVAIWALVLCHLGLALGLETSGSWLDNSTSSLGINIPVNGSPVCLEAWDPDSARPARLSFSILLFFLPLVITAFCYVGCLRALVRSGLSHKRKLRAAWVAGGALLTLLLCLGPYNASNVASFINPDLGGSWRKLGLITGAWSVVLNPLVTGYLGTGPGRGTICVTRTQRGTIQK

Cc1cc(COc2ccccc2S(C)(=O)=O)nc(-c2ccccn2)n1
logD [1]: 1.5
IC50 [2]: > 39800 nM

Cc1cc(COc2ccccc2)nc(-c2ccccn2)n1
logD [1]: 3.4
IC50 [2]: 794 nM

Cc1cc(COc2ccc(F)cc2F)nc(-c2ccccn2)n1
logD [1]: 3.1
IC50 [2]: 398 nM

Fc1ccc(OCc2cc(OCC3(F)COC3)nc(-c3ccccn3)n2)c(F)c1F
CLint (Hepatocyte): 72 µL/min/1e6 cells
clearance [3]: 19 mL/min/kg
fraction unbound [4]: 0.015
CLint (Liver microsome): 56 µL/min/mg
logD [1]: 4
bioavailability [5]: 12%
solubility [6]: 2.9 µM (≈ 1.22 µg/mL)
Vd [7]: 1.4 L/kg
IC50 [8]: 31.6 nM
fraction unbound [9]: 0.017
Fa [10]: 16%
CL free (Rattus norvegicus [11]): 1100 mL/min/kg

Fc1ccc(OCc2cc(OCC3CCC3)nc(-c3ccccn3)n2)c(F)c1F
logD [1]: 4.5
IC50 [2]: 12.6 nM

Fc1ccc(OCc2cc(N3CC4(CCO4)C3)nc(-c3ccccn3)n2)c(F)c1F
logD [1]: 3.3
IC50 [2]: 501 nM

Cc1cc(COc2ccc(S(C)(=O)=O)cc2)nc(-c2ccccn2)n1
logD [1]: 1.5
IC50 [2]: > 39800 nM

Cc1cc(COc2ccccc2F)nc(-c2ccccn2)n1
logD [1]: 2.9
IC50 [2]: 398 nM

Cc1cc(COc2cc(F)c(F)cc2F)nc(-c2ccccn2)n1
logD [1]: 3.2
IC50 [2]: 398 nM

CCNc1cc(COc2cccc(F)c2)nc(-c2ccccn2)n1
logD [1]: 3.9
IC50 [2]: 631 nM

CC(C)Nc1cc(COc2cccc(F)c2)nc(-c2ccccn2)n1
logD [1]: 4.3
IC50 [2]: 100 nM

CC1(COc2cc(COc3ccc(F)c(F)c3F)nc(-c3ccccn3)n2)COC1
logD [1]: 4
IC50 [2]: 79.4 nM

Cc1cc(COc2ccc(F)c(F)c2F)nc(-c2ccccn2)n1
CLint (Hepatocyte): 17 µL/min/1e6 cells
clearance [3]: 24 mL/min/kg
fraction unbound [4]: 0.03
CLint (Liver microsome): 57 µL/min/mg
logD [1]: 3.3
bioavailability [5]: 39%
solubility [6]: 22 µM (≈ 7.29 µg/mL)
Vd [7]: 2.3 L/kg
IC50 [8]: 200 nM
IC50 [2]: 251 nM
fraction unbound [9]: 0.063
Fa [10]: 59%
CL free (Rattus norvegicus [11]): 380 mL/min/kg

Cc1cc(COc2cc(F)cc(F)c2F)nc(-c2ccccn2)n1
logD [1]: 3.4
IC50 [2]: 501 nM

COc1cccc(OCc2cc(C)nc(-c3ccccn3)n2)c1
logD [1]: 2.9
IC50 [2]: 2000 nM

CC1(CS(C)(=O)=O)CN(c2cc(COc3ccc(F)c(F)c3F)nc(-c3ccccn3)n2)C1
logD [1]: 2.9
IC50 [2]: 6310 nM

CC1(C)CN(c2cc(COc3ccc(F)c(F)c3F)nc(-c3ccccn3)n2)C1
logD [1]: 4.3
IC50 [2]: 25.1 nM

Cc1cc(COc2cc(F)c(F)c(F)c2)nc(-c2ccccn2)n1
logD [1]: 3.4
IC50 [2]: 398 nM

COc1ccccc1OCc1cc(C)nc(-c2ccccn2)n1
logD [1]: 2.5
IC50 [2]: 2000 nM

Cc1cc(COc2cccc(Cl)c2)nc(-c2ccccn2)n1
logD [1]: 3.7
IC50 [2]: 398 nM

CC1(C#N)CN(c2cc(COc3ccc(F)c(F)c3F)nc(-c3ccccn3)n2)C1
Activity (Rattus norvegicus [12]): Non-toxic
inhibition in vivo at 80 mg/kg (Rattus norvegicus [13]): 70%
CLint (Hepatocyte): 26 µL/min/1e6 cells
clearance [3]: 30 mL/min/kg
fraction unbound [4]: 0.048
CLint (Liver microsome): 52 µL/min/mg
logD [1]: 3.3
bioavailability [5]: 32%
solubility [6]: 2.9 µM (≈ 1.19 µg/mL)
Vd [7]: 3 L/kg
IC50 [8]: 63.1 nM
Activity (Rattus norvegicus [14]): Non-toxic
inhibition [15]: Active
IC50 [2]: 158 nM
fraction unbound [9]: 0.056
Fa [10]: 56%
inhibition [16]: inactive
CL free (Rattus norvegicus [11]): 540 mL/min/kg

CCOc1cc(COc2cccc(F)c2)nc(-c2ccccn2)n1
logD [1]: 4.1
IC50 [2]: 251 nM

CC(=O)Nc1ccc(OCc2cc(C)nc(-c3ccccn3)n2)cc1
logD [1]: 1.9
IC50 [2]: > 39800 nM

Cc1cc(COc2cccc(F)c2)nc(-c2ccccn2)n1
logD [1]: 3.1
IC50 [2]: 794 nM

N#CCC1(COc2cc(COc3ccc(F)c(F)c3F)nc(-c3ccccn3)n2)COC1
logD [1]: 3.3
IC50 [2]: 398 nM

COc1ccc(OCc2cc(C)nc(-c3ccccn3)n2)cc1
logD [1]: 2.8
IC50 [2]: 7940 nM

Cc1cc(COc2ccc(F)c(F)c2)nc(-c2ccccn2)n1
logD [1]: 3.2
IC50 [2]: 501 nM

Cc1cc(COc2cccc(F)c2F)nc(-c2ccccn2)n1
logD [1]: 3.2
IC50 [2]: 398 nM

Cc1cc(COc2c(F)cc(F)cc2F)nc(-c2ccccn2)n1
logD [1]: 3.2
IC50 [2]: 1260 nM

Cc1cc(COc2cccc(C#N)c2)nc(-c2ccccn2)n1
logD [1]: 2.7
IC50 [2]: 2510 nM

Fc1ccc(OCc2cc(OCC3COC3)nc(-c3ccccn3)n2)c(F)c1F
logD [1]: 3.7
IC50 [2]: 316 nM

CC(=O)Nc1ccccc1OCc1cc(C)nc(-c2ccccn2)n1
logD [1]: 1.6
IC50 [2]: > 39800 nM

Cc1cc(COc2ccccc2Cl)nc(-c2ccccn2)n1
logD [1]: 3.4
IC50 [2]: 316 nM

CC(=O)Nc1cccc(OCc2cc(C)nc(-c3ccccn3)n2)c1
logD [1]: 2.1
IC50 [2]: > 39800 nM

Cc1cc(COc2ccc(F)cc2)nc(-c2ccccn2)n1
logD [1]: 3
IC50 [2]: 631 nM

COC1(COc2cc(COc3ccc(F)c(F)c3F)nc(-c3ccccn3)n2)COC1
logD [1]: 3.5
IC50 [2]: 501 nM

CN(C)c1cc(COc2cccc(F)c2)nc(-c2ccccn2)n1
logD [1]: 3.6
IC50 [2]: 1580 nM

Cc1cc(N/N=C/c2ccccc2)nc(-c2ccccc2)n1
logD [1]: 4.3
solubility [6]: < 0.3 µM
IC50 [2]: 251 nM

Cc1cc(COc2ccccc2C#N)nc(-c2ccccn2)n1
logD [1]: 2.7
IC50 [2]: 10000 nM

OC1CN(c2cc(COc3ccc(F)c(F)c3F)nc(-c3ccccn3)n2)C1
logD [1]: 2.8
IC50 [2]: 3160 nM

Cc1cc(COc2c(F)ccc(F)c2F)nc(-c2ccccn2)n1
logD [1]: 3.1
IC50 [2]: 1580 nM

Cc1cc(COc2ccc(C#N)cc2)nc(-c2ccccn2)n1
logD [1]: 2.6
IC50 [2]: 31600 nM

c1ccc(OCc2cc(N3CCOCC3)nc(-c3ccccn3)n2)cc1
logD [1]: 2.8
IC50 [2]: 631 nM

Cc1cc(COc2ccc(Cl)cc2)nc(-c2ccccn2)n1
logD [1]: 3.7
IC50 [2]: 251 nM

COc1cc(COc2cccc(F)c2)nc(-c2ccccn2)n1
logD [1]: 3.6
IC50 [2]: 1260 nM

Fc1ccc(OCc2cc(OCC(F)(F)F)nc(-c3ccccn3)n2)c(F)c1F
logD [1]: > 4.9
IC50 [2]: 7.94 nM

Cc1cc(COc2cccc(S(C)(=O)=O)c2)nc(-c2ccccn2)n1
logD [1]: 1.7
IC50 [2]: > 39800 nM
